Assay results reported in ChEMBL document CHEMBL1157344, “Botcinins E and F and Botcinolide from Botrytis cinerea and structural revision of botcinolides” (2006).
Converted amounts (≈) assume the structure as drawn.

System: Pyricularia grisea
Assay: Antifungal activity against Magnaporthe grisea
Type: functional

First: CCCCCC[C@H](O)/C=C/C(=O)O[C@@H]1[C@@H](C)[C@@H]2OC(=O)[C@H](C)[C@H](OC(C)=O)[C@@]2(C)O[C@H]1C [BOTCININ B]
Second: CCCC[C@H](O)/C=C/C(=O)O[C@@H]1[C@@H](C)[C@@H]2OC(=O)[C@H](C)[C@H](O)[C@@]2(C)O[C@H]1C [3-O-DEACETYLBOTCININ A]
The MIC of the first is 8-fold lower: 12.5 µM (≈ 5.68 µg/mL) for the first, 100 µM (≈ 38.4 µg/mL) for the second.

`CCCC[C@H](O)/C=C/C(=O)O[C@@H]1[C@@H](C)[C@H](O)[C@@](C)([C@@H](O)[C@@H](C)C(=O)O)O[C@H]1C` [BOTCINIC ACID] and `CCCC[C@H](O)/C=C/C(=O)O[C@@H]1[C@@H](C)[C@@H]2OC(=O)[C@@H](C)[C@H](O)[C@@]2(C)O[C@H]1C` [BOTCININ F] are the same in MIC: 100 µM (≈ 40.2 µg/mL) for the first, 100 µM (≈ 38.4 µg/mL) for the second.

Molecule `CCCC[C@H](O)/C=C/C(=O)O[C@@H]1[C@@H](C)[C@@H]2OC(=O)C(C)=C[C@@]2(C)O[C@H]1C` [BOTCININ D] has an MIC of 12.5 µM (≈ 4.58 µg/mL).
